Data: PubChem BioAssay (NCI)
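At the GI50, growth is halved. TGI marks complete inhibition of growth.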

Legend:
Test in all cases: NCI anticancer screen, dose series, 384-well format
[1] = test system: ACHN renal
[2] = test system: DU-145 prostate
[3] = test system: HCC-2998 colon
[4] = test system: HOP-62 NSCLC
[5] = test system: HS 578T breast
[6] = test system: MALME-3M melanoma
[7] = test system: MDA-MB-231 breast
[8] = test system: NCI-H226 lung
[9] = test system: NCI-H23 lung
[10] = test system: NCI/ADR-RES ovarian
[11] = test system: SNB-19 CNS
[12] = test system: TK-10 renal
[13] = test system: UO-31 renal

Question: Which GI50 [1] does the source give for `N#Cc1c(N)nc(N)nc1N[C@H](c1nc2c(F)ccc(Cl)c2c(=O)n1-c1cccnc1)C1CC1` here?
Answer: 7.04 µM

Question: What about the TGI [1] of the same molecule?
Answer: > 100 µM

Question: And the GI50 [2]?
Answer: 13.4 µM

Question: What about the TGI [2] of the same molecule?
Answer: > 85.1 µM

Question: And the GI50 [3]?
Answer: 11 µM

Question: What about the TGI [3] of the same molecule?
Answer: 24.5 µM

Question: What about the GI50 [4] of the same molecule?
Answer: 17.9 µM

Question: What about the TGI [4] of the same molecule?
Answer: > 65.3 µM

Question: What about the GI50 [5] of the same molecule?
Answer: 1.79 µM

Question: What about the TGI [5] of the same molecule?
Answer: 15.4 µM

Question: And the GI50 [6]?
Answer: > 39.9 µM

Question: What about the TGI [6] of the same molecule?
Answer: > 100 µM

Question: And the GI50 [7]?
Answer: 9.59 µM

Question: What about the TGI [7] of the same molecule?
Answer: 34.2 µM

Question: And the GI50 [8]?
Answer: 15.6 µM

Question: What about the TGI [8] of the same molecule?
Answer: > 57.7 µM

Question: What about the GI50 [9] of the same molecule?
Answer: 15.3 µM

Question: What about the TGI [9] of the same molecule?
Answer: 54.8 µM

Question: And the GI50 [10]?
Answer: 34.2 µM

Question: What about the TGI [10] of the same molecule?
Answer: > 100 µM

Question: And the GI50 [11]?
Answer: 15 µM

Question: What about the TGI [11] of the same molecule?
Answer: 31.8 µM

Question: And the GI50 [12]?
Answer: 4.55 µM

Question: And the TGI [12]?
Answer: 29.1 µM

Question: What about the GI50 [13] of the same molecule?
Answer: 2.64 µM

Question: What about the TGI [13] of the same molecule?
Answer: 8.87 µM
